Data reported in US8603498B2, “Lipo-phosphated or lipo-sulphated compound, compositions comprising it and topical uses thereof” (Sederma, S.A.S., priority 2010, dated 2013).

Tests used:
[1] = test system: filaggrin/profilaggrin; test: Filaggrin synthesis on human keratinocytes (immunofluorescent method); type: cell-based; details: for Filaggrin/profilaggrin (UFA/10^6 cell.): 21 days contact; for Filaggrin/profilaggrin Change (%): vs control
Description: (§1) Protocol: Human keratinocytes were cultivated up to confluence. The cells were then placed in contact/not contact with the solubilized Lipo-Phosphomalate for 21 days. At the end of this contact period, labelling common to both filaggrin and profilaggrin was carried out on cell layers using specific antibodies. Labelling intensity was analysed on photos (n=15 photos) and compared to that obtained for the negative control and for vitamin D3 at 10^−7M used as a positive differentiation control.

[2] = test system: matriptase; test: Production of matriptase in cultured human keratinocytes by immunolabelling; type: cell-based; details: for Matriptase Change (%): vs control
[3] = test system: caspase-14; test: Production of caspase-14 in cultured human keratinocytes by immunolabelling; type: cell-based; details: for Caspase Change (%): vs control
[4] = test system: loricrin; test: Production of loricrin in cultured human keratinocytes by immunolabelling; type: cell-based; details: for Loricrin Change (%): vs control
Description: as §1
Loricrine is one of the key elements in the formation of the corneal envelope. It is attached to involucrin (see 1.1) by transglutaminase, which forms rigid, insoluble structures. The method described in 1.2. was used.

[5] = test system: transglutaminase-1 m-RNA; test: Transglutaminase-1 m-RNA in keratinocytes by qRT-PCR; type: cell-based, human; details: 5 ppm, 14 days; for m-RNA % change: after normalisation by the housekeeping gene
From the text: ByqRT-PCR: Human keratinocytes were placed in contact/not placed in contact with solubilised for 14 days. At the end of the contact period, the cultures were stopped and m-RNA allowing production of transglutaminase-1 protein was quantified using the RT-PCR method.
After extraction and purification of the m-RNA, copies are made in DNA using a Reverse Transcriptase (RT). The number of copies of a given m-RNA (here that of TGase) is thereafter amplified using two oligonucleotides (called primers) specific to the gene of TGase and to an enzyme (PCR=polymerase chain reaction) during a series of amplification cycles, each of which doubling the number of copies present. The result of this amplication is measured by fluorescence. Ct is the number of cycles required to achieve a given fluorescence level (arbitrarily set). It is clear, that the more m-RNA of a given gene present in the starting culture there are, the fewer cycles (Ct) are needed to reach the set level of fluorescence.

[6] = test system: transglutaminase; test: Transglutaminase activity in keratinocytes by enzymology (fluorescent substrate); type: cell-based, human; details: 5 ppm, 14 days; for Enzymology % Change: vs control
From the text: At the end of the 14-day contact period, the cells were placed in contact with a fluorescent synthetic transglutaminase substrate. Metabolisation of the substrate via transglutaminase will allow the fixation in the intracellular protein matrix. After rinsing, the non fixed fluorescent substrate is eliminated and the fluorescence fixed in the cells by the enzyme is quantified.

[7] = test system: transglutaminase-1 gene; test: DNA-Array study, transglutaminase-1 gene; type: cell-based; details: in the presence of solubilised Lipo-Phosphomalate
From the text: (§2) In addition, a DNA-Array study has shown that the transglutaminase-1 and involucrin genes are over-expressed in the network with other genes essential for the formation of the corinfied layer in the presence of solubilised Lipo-Phosphomalate.

[8] = test system: involucrin gene; test: DNA-Array study, involucrin gene; type: cell-based; details: in the presence of solubilised Lipo-Phosphomalate
From the text: as §2

[9] = test system: cholesterol; test: Cholesterol in keratinocytes by immunolabelling (IMF); type: cell-based, human; details: 5 ppm, 7 days
Description: Cultured human keratinocytes at confluence were placed in contact with the Lipo-Phosphomalate in a medium slightly enriched with calcium to promote the establishment of intercellular junctions and thus improve the anchorage of differentiated cells to the underlying cells. A negative control was carried out in the same medium. After a 7-day contact period, the layer was labeled with a cholesterol-specific fluorescent. The intensity of the labeling was analysed on the photos and compared to that obtained with the negative control (Table 6).

[10] = test system: cholesterol; test: Cholesterol in keratinocytes by HPTLC; type: cell-based, human; details: 5 ppm, 7 days
Description: (§3) The same protocol was followed as before but a larger quantity of keratinocyes was used on this occasion because of the limits of detection of the apparatus. After 7 days, the layers were rinsed, lipids extracted using solvents before being deposited on a thin-layer chromatography plate using an automated device. After migration and detection, the bands were analysed and quantified based on a range of standard lipids deposited on the same plate.

[11] = test system: non hydroxylated ceramides; test: Non hydroxylated ceramides in keratinocytes by HPTLC; type: cell-based, human; details: 5 ppm
Description: as §3
(§4) At the same time as the HPTLC cholesterol assay, an assay of hydroxylated and non-hydroxylated ceramides was carried out on the extracts.

[12] = test system: hydroxylated ceramides; test: Hydroxylated ceramides in keratinocytes by HPTLC; type: cell-based, human; details: 5 ppm, 7 days
Description: as §3, §4

[13] = 5 ppm, listed as Solubilised Lipo-Phosphomalate
[14] = 5 ppm, listed as solubilised Lipo-Phosphomalate
[15] = listed as Solubilised Lipo-Phosphomalate
[16] = listed as solubilised Lipo-Phosphomalate

## CCCCCCCCCCCCCCOC(=O)CC(OP(=O)(O)O)C(=O)O (stereo not shown) [Lipo-Phosphomalate, 2-phosphate-succinic-acid-4-tetradecyle ester]
[1]; 1.5 ppm
  Filaggrin/profilaggrin (UFA/10^6 cell.): 3.04 ± 1.21 UFA/10^6 cell.
  Filaggrin/profilaggrin Change (%): +119%; p < 0.01
[1]; 5 ppm
  Filaggrin/profilaggrin (UFA/10^6 cell.): 5.00 ± 1.58 UFA/10^6 cell.
[1]; [13]
  Filaggrin/profilaggrin Change (%): +259%; p < 0.01
[1]; [14]
  Filaggrin/profilaggrin Change (%): +259%
[2]; 1.5 ppm
  Matriptase (UFA/10^6 cell.): 2.27 ± 0.47 UFA/10^6 cell.
  Matriptase Change (%): +125%; p < 0.01
[2]; 5 ppm
  Matriptase (UFA/10^6 cell.): 4.08 ± 1.56 UFA/10^6 cell.
[2]; [13]
  Matriptase Change (%): +304%; p < 0.01
[2]; [14]
  Matriptase Change (%): +304%
[3]; 1.5 ppm
  Caspase (UFA/10^6 cell.): 1.13 ± 0.44 UFA/10^6 cell.
  Caspase Change (%): +121%; p < 0.01
[3]; 5 ppm
  Caspase (UFA/10^6 cell.): 1.68 ± 0.64 UFA/10^6 cell.
[3]; [13]
  Caspase Change (%): +229%; p < 0.01
[3]; [14]
  Caspase Change (%): +229%
[4]; 1.5 ppm
  Loricrin (UFA/10^6 cell.): 1.69 ± 0.67 UFA/10^6 cell.
  Loricrin Change (%): +131%; p < 0.01
[4]; 5 ppm
  Loricrin (UFA/10^6 cell.): 3.84 ± 1.19 UFA/10^6 cell.
  Loricrin Change (%): +426%; p < 0.01
[5]; [15]
  m-RNA % change: +101%; p < 0.01
[5]; [16]
  m-RNA % change: ~+100%
[5]; control 24.60 ± 0.42
  m-RNA Number of cycles: Ct: 23.25 ± 0.46
[6]
  Enzymology Transglutaminase (UFA/10^6 cell.): 516 ± 63 UFA/10^6 cell.
[6]; [15]
  Enzymology % Change: +124%; p < 0.01
[6]; [16]
  Enzymology % Change: ~+100%
[7]
  transglutaminase-1 gene expression (DNA-Array): over-expressed
[8]
  involucrin gene expression (DNA-Array): over-expressed
[9]
  IMF Cholesterol (UFA/10^6 cell.): 4.98 ± 2.59 UFA/10^6 cell.
[9]; vs control
  IMF Cholesterol % Change: +107%; p < 0.04
[10]
  HPTLC Cholesterol (pg/10^6 cell.): 30.89 ± 7.20 pg/10^6 cell.
[10]; vs control
  HPTLC Cholesterol % Change: +53%; p < 0.05
[11]; 7 days
  Non hydroxylated Ceramides (pg/10^6 cell.): 8.41 ± 1.30 pg/10^6 cell.
[11]; vs control
  Non hydroxylated Ceramides % Change: +256%; p < 0.01
[12]
  Hydroxylated Ceramides (pg/10^5 cell.): 10.50 ± 1.12 pg/10^5 cell.
